Data from patent US20210206817A1, “Metabolically Stable Apelin Analogs in the Treatment of Disease Mediated by the Apelin Receptor” (priority 2014, published 2021).
Values joined by “and” are separate entries in the source; they are usually repeats but may differ in a detail not shown here. Identical values can stand only once. Like-named read-outs stand apart in the source and are kept apart here.

Assays:
rat apelin receptor-EGFP [1] = molecular target: T1, rat apelin receptor-EGFP (Rattus norvegicus, UniProt Q9JHG3); assay: ERK1/2 phosphorylation (Alphascreen); assay type: cell-based; conditions: Table 7; read-out: ERK1/2 phosphorylation EC50
T1 construct: expressed in transfected cells
T1 sequence (Q9JHG3 1-377): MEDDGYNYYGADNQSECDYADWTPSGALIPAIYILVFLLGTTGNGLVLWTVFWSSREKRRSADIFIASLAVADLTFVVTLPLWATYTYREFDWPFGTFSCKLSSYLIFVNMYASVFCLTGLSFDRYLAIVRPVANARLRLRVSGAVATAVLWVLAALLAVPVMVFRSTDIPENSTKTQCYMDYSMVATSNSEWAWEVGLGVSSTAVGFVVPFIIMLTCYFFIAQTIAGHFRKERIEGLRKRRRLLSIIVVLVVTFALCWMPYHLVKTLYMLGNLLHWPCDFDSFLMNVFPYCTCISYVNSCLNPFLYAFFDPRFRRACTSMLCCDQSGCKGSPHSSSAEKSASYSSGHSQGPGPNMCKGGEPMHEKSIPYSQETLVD
Excerpt: ERK1/2 phosphorylation was then monitored by Alphascreen technology.

[2] = tested on: water-deprived or euhydrated mice; conditions: i.c.v., Iturrioz 2010; cited from earlier work
[3] = tested on: rat aortic rings precontracted by noradrenaline (NA); assay: Isometric tension of aortic rings precontracted by noradrenaline
Protocol: The experiments were performed in rat aortic rings as previously described (39). […] The aortas were cleaned of excess connective tissue and fat and cut into rings of approximately 3-4 mm in length. Special care was taken to avoid damaging the luminal surface of the endothelium. […] One end of the aortic ring was connected to a tissue holder and the other to an isometric force transducer (EMKA Technologies, Paris, France). […] During equilibration period, the rings were washed every 30 min. Then, a first relaxation to acetylcholine (Ach, 10^−4 mol/L) was implemented to check the integrity or the absence of the endothelium in rings precontracted with NA (3×10^−8 mol/L). After rinsing with PSS to baseline tension, rings were equilibrated for 90 min. […] Each concentration of the drug was added at the maximal effect of the precedent concentration. The concentration-response curves were continuously recorded on a PC by means of IOX v 2.4 (EMKA Technologies, Paris) for further analysis (Datanalyst v2.1, EMKA Technologies, Paris).

rat apelin receptor-EGFP [4] = molecular target: T1, rat apelin receptor-EGFP; assay: [125I]pE13F radioligand binding on CHO membrane preparations
Protocol: Crude membrane preparation from CHO stably expressing the wild-type rat apelin receptor-EGFP, were prepared as previously described (39). […] The reaction was stopped by adding ice-cold binding buffer and filtered through glass microfiber filters (Whatman GF/C filters). Radioactivity was counted in Wizard 1470 Wallac gamma counter (Perkin Elmer, Turku, Finland).

[5] = Stability in mouse plasma at 37° C.; conditions: mouse, plasma
Protocol: For each compound, the stock solution (100 μM in water) was diluted in plasma to a final incubation concentration of 5 μM. The incubation at 37° C. was stopped respectively at to and 4 h by adding one volume of ice cold acetonitrile containing 0.1% trifluoroacetic acid. The sample was vortexed for 1 min and then centrifuged at 4° C. before LC-MS injection of the supernatant. Analyses were performed on a Kinetex RP-C18 column (2.6 μm, 100 Å, 50×4.6 mm) using a linear gradient (solvent B in solvent A, solvent A: water/0.05% TFA; solvent B: acetonitrile; flow rate of 2 mL·min^−1: detection at 358 nm). The percentage of remaining test compound relative to t0 was measured by monitoring the peak area of the chromatogram.

[6] = tested on: isolated perfused rat heart; assay: Isolated perfused rat heart, cardiac contractility
Protocol: Animals were anesthetized with pentobarbital sodium (50 mg/kg intraperitoneally). Heparin (200 IU/kg) was administrated into the femoral vein. Hearts were excised quickly and arrested in ice-cold Krebs-Henseleit solution containing (mM): […] […] Temperature was continuously monitored by a thermoprobe inserted into the right atrium. Hearts beat spontaneously under the sinus rhythm. […] The maximal rate of rise of left ventricular pressure (dP/dtmax) and heart rate were derived from left ventricular pressure. After 20-minutes equilibration period, the hearts were treated by drugs added to the perfusate with an infusion pump (Harvard Apparatus Pump 11) at rate of 100 μL/min for 30 minutes.

[7] = Half-life in the blood circulation
[8] = tested on: rat glomerular arterioles precontracted by Angiotensin II (AngII); assay: Diameter of glomerular arterioles precontracted by angiotensin II; conditions: L-NAME, NO synthase inhibitor
Protocol: The left kidney of male rats was prepared for microdissection of arterioles as previously described (44). Glomerular arterioles were isolated under stereomicroscopic observation. The afferent and muscular efferent arterioles were isolated with the glomerulus and identify according their morphology and localization in the inner renal cortex as previously described by Helou et al. […] For these experiments afferent and muscular efferent arterioles were microdissected attached to the gomeruli. […] Arteriolar diameters were measured with Adobe Photoshop CS. Diameters were measured on a distance equal to about 100 μm upstream of the glomerulus and triplicate were performed for each arteriole. Calibration was made using a stage micrometer. The average diameter for each experimental condition was used for statistical analysis.

[9] = tested on: water-deprived or euhydrated mice; assay: Plasma AVP after i.c.v. injection (RIA); assay type: in vivo, mouse; conditions: 1 μg i.c.v.
Protocol: Animals were killed 1 min after the injection, and trunk blood (0.5-1 ml) was collected in chilled tubes containing 50 μl of 0.3 M EDTA pH 7.4. […] RIA kit (Peninsula Laboratories International Inc, San Carlo, USA).

rat apelin receptor-EGFP [10] = molecular target: T1, rat apelin receptor-EGFP; assay: Apelin receptor-EGFP internalization, confocal microscopy; assay type: cell-based; conditions: Table 2; read-out: Internalization EC50
Protocol: The internalization assay was performed as described previously with CHO cells stably expressing the rat apelin receptor-EGFP (43). […] Cells were then mounted in Aquapolymount (Polysciences, Warrington, Pa., USA) for confocal microscopic analysis (Sec (42) for details).

rat apelin receptor-EGFP [11] = molecular target: T1, rat apelin receptor-EGFP; assay: Inhibition of forskolin-induced cAMP production (HTRF); assay type: cell-based
Protocol: cAMP was quantified using the cAMP dynamic 2 assay kit (Cisbio Bioassays, Codolet, France) based on homogeneous time-resolved fluorescence (HTRF) technology. The stimulation was done in the stimulation buffer (HBSS, 5 mM Hepes, 0.1% BSA stabilizer, 1 mM IBMX, pH 7.4). Briefly, 2,000/well CHO cells stably expressing the rat apelin receptor-EGFP were added into 384-well plate and stimulated with 10^−6 M forskolin (FSK) and increasing concentrations (10^−14 to 10^−4 M) of apelins or its analogs for 30 min at room temperature. Cells were then lyzed, and cAMP levels were determined following manufacturer instructions.

[12] = tested on: anaesthesized normotensive Wistar rats; assay: Arterial blood pressure after i.v. injection; assay type: in vivo, rat
Protocol: The resulting solution was administered to the rats via a catheter inserted into the right femoral vein, and was immediately followed by 0.2 ml Krebs buffer alone to flush the venous catheter. An additional catheter was inserted into the right femoral artery, as previously described (47), for the monitoring of mean arterial blood pressure (MBP) as previously described (48). The arterial catheter was connected to a COBE CDX III pressure transducer (Phymep, Paris, France) linked to the Maclab system (Phymep, Paris, France). HR measurement was triggered by the blood pressure signal. BP was continuously recorded throughout the experiment. […] Mean AUC for each group were then calculated. Unpaired Student's t test was used to determine whether BP observed in response to substances administered […].) has statistically significant difference.

## CSCC[C@H](NC(=O)[C@@H]1CCCN1C(=O)CNC(=O)[C@H](CCCCN)NC(=O)[C@H](Cc1c[nH]cn1)NC(=O)[C@H](CO)NC(=O)[C@H](CC(C)C)NC(=O)[C@H](CCCNC(=N)N)NC(=O)[C@@H]1CCCN1C(=O)[C@H](CCCNC(=N)N)NC(=O)[C@H](CCC(N)=O)NC(=O)[C@H](CCCNC(=N)N)NC(=O)[C@H](CCCNC(=N)N)NC(=O)[C@H](Cc1ccccc1)NC(=O)[C@@H](N)CCCCN)C(=O)N1CCC[C@H]1C(=O)N[C@@H](Cc1ccccc1)C(=O)O [K17F, reference compound]
Rat apelin receptor-EGFP [1]
  EC50: 4.08 ± 1.17 nM
[2]
  ED50 decrease in plasma AVP: 56 pmol
[3]; 100 μM
  vasorelaxing effect at maximal concentration: 93±3%
[3]; precontraction 3×10^−6 M NA
  maximal relaxant effect: 87±8%
  potency (pD2) of relaxation: 8.30±0.44
Rat apelin receptor-EGFP [4]; Table 7, additional experiments vs Table 2, read-out: Binding affinity Ki
  Ki: 0.06 ± 0.01 nM
Rat apelin receptor-EGFP [4]; [125I]pE13F binding I (nM), Table 2
  Ki: 0.26 ± 0.12 nM
Rat apelin receptor-EGFP [4]; competition with [125I]pE13F, CHO membranes, read-out: Ki for the apelin receptor (affinity)
  Ki: 0.3 ± 0.1 nM
[5]
  half-life at 5 μM: 4.6 min
[6]
  chronotropic effect: No chronotropic effect
[6]; K17F 0.01 to 300 nM, P92 200 and 400 nM
  effect on cardiac contractility (developed pressure): dose-dependently increased developed pressure
[7]
  half-life: 0.667 min
[8]
  vasorelaxant effect in the presence of L-NAME: blocked
[9]; water-deprived mice 24 h, saline 425±46 pg/ml
  plasma AVP levels: 190 ± 27 pg/mL
[9]; water-deprived mice
  maximal decrease in AVP release: −94%
Rat apelin receptor-EGFP [10]
  EC50: 0.26 ± 0.09 nM
Rat apelin receptor-EGFP [11]; 10^−6 M forskolin, read-out: IC50 inhibition of forskolin-induced cAMP production
  IC50: 0.3 ± 0.2 nM
Rat apelin receptor-EGFP [11]; Table 1, read-out: cAMP production IC50
  IC50: 0.3 ± 0.1 nM
Rat apelin receptor-EGFP [11]; Table 3, read-out: IC50 cAMP inhibition
  IC50: 0.09 ± 0.01 nM
[12]; 15 nmol/rat i.v.
  (maximal) decrease in mean arterial blood pressure: 7.8 mmHg and 5.4±1 mmHg
  time of maximal hypotensive response after injection: 1.2 min
[12]; 100 nmol i.v., 15 minutes following injection
  AUC of BP response: −13712±5271 mmHg·s
[12]; 100 nmol/rat i.v.
  decrease in MABP: 30.5 mmHg
  plateau value after maximal decrease: −12 mmHg
  time of return to plateau value: around 22 min
[12]; Table 5, 15 nmol i.v.
  Maximal decrease in BP (mmHg): −7.8 mmHg
  Time For maximal BP decrease: 1.2 min
  Time to return to a plateau value: 4.2 min
  plateau value reached (in brackets): baseline
[12]; i.v. 5-100 nmol/rat
  ED50 decrease of MABP: 30 nmol
